For assay [1], the system named is Staphylococcus aureus ATCC 29213. Description: MIC against challenge strain (Table 3). It counts as cell-based.
The test system of assay [2] is Enterococcus faecalis ATCC 700802. Description: In vivo protection of infected mice. More on the design: species or system Kungming mice. How it is done: (§1) The following experiments were performed by Pharmacology Lab, National Sichuan antibiotic industril institute, Chengdu, Sichuan.
(§2) The agents described above were diluted with sterilized water to final concentrations of 10 mg/L, 5 mg/Land 2.5 mg/L.
(§3) Staphylococcus aureus ATCC BAA-42(MRSA) and enterococcus faecalis ATCC 700802 were used as control strains.
(§4) 170 mice (Kungming mice: 18˜22 g, 85 males and 85 females) were randomly divided into four groups and injected with a fatal dosage of staphylococci, enterococcus and E. coli intraperitoneally. […] Mice were inspected every 24 hours for 7-14 days. Dead mice were counted as positive results. The results are depicted in Table 3 and FIGS. 4 and 5A-B.

For assay [3], the system named is Staphylococcus aureus MRSA 02-18. Description: In vivo protection of infected mice. Also noted: species or system Kungming mice. How it is done:
as §1, §2, §3, §4

Assay [4] deals with Staphylococcus aureus MRSA BAA-42. Description: In vivo protection of infected mice. More on the design: species or system Kungming mice. How it is done:
as §1, §2, §3, §4

The test system is the same in assay [5]. Description: microbe, parasite or virus in culture. The assay is classed as cell-based.
Assay [6] concerns Escherichia coli 02-1-65. Description: In vivo protection of infected mice. More on the design: species or system Kungming mice. The note with it: i.p. infection 3.3 × 10^5 cfu/ml. How it is done:
as §1
(§5) The agents described above were diluted with sterilized water to final concentrations of 10 mg/L, 5 mg/Land 2.5 mg/L. […]
as §4

The subject of assay [7] is Staphylococcus aureus ATCC 29213. Description: In vivo protection of infected mice. More on the design: species or system Kungming mice. The note with it: i.p. infection 3.6 × 10^5 cfu/ml. How it is done:
as §1, §5, §4

For assay [8], the system named is Staphylococcus aureus MRSA 02-18. Description: microbe, parasite or virus in culture. The assay is classed as cell-based. The note with it: Staphylococcus aureus, MRSA.
The subject of the next assay is Enterococcus (20). Description: In vitro antibacterial activity (MIC), clinical isolates. It counts as cell-based. The note with it: 20 Enterococcus clinical isolates. How it is done: (§6) The following experiments were performed by Lab. of Pharmacology, National Sichuan antibiotic industril institute, Chengdu, Sichuan.
(§7) The following agents were used to test the in vitro activity of Ph-SA:
(§8) All the bacterial strains used in the experiments were clinical isolates collected from Sichuan and Beijing in 2002 and identified by West China Hospital, Sichuan University and Chongqing University of Medical Sciences with API system. The following strains were used in the experiments detailed below: Staphylococcus aureus 168 strains (MRSA 80 strains and MSSA 88 strains) Staphylococcus epidermidis 46 strains (MRSE 25 strains and MSSE 21 strains), Enterococcus 20 strains, and Acenetobactor 20 strains. Staphylococcus aureus ATCC25923, 29213 and BAA-42 were used as control strains. Bacterial strains were contacted with one of the above described compounds and MIC50, MIC90 and MICScope were determined.

Another assay deals with Acenetobactor (20). Described as above. It counts as cell-based. How it is done: as §6, §7, §8
The subject of assay [9] is Staphylococcus aureus MSSA strain (88). The description is as above. The assay is classed as cell-based. Conditions: Staphylococcus aureus, MSSA. The procedure:
as §6, §7, §8

Assay [10] has as its system Staphylococcus aureus MRSA strain (80). Described as above. The assay is classed as cell-based. The procedure:
as §6, §7, §8

Assay [11] deals with Staphylococcus epidermidis MRSE strain (25). The assay is described as above. The assay is classed as cell-based. How it is done: as §6, §7, §8
Assay [12] concerns Staphylococcus epidermidis MSSE strain (21). Described as above. The assay is classed as cell-based. Conditions: Staphylococcus epidermidis, 21 MSSE clinical isolates. The procedure: as §6, §7, §8
Assay [13] relates to Enterococcus faecalis ATCC 700802. Description: microbe, parasite or virus in culture. Conditions: Enterococcus faecalis, ATCC700802. It counts as cell-based.
In assay [14] the test system is Candida albicans ATCC 10231. Description: In vitro cell growth inhibition assay (OD595, filaments).
In assay [15] the test system is Escherichia coli 02-1-65. Description: MIC against challenge strain (Table 3). It counts as cell-based. The note with it: 02165, read-out: MIC.
The mark [16] stands for this setting: 1st Time, i.v. treatment after one hour.
Setting [17] is: 2nd Time (value in parentheses), i.v. treatment.
Where [18] appears, read: Staphylococcus epidermidis, MRSE.

Here are results for three molecules from patent publication US20050153872A1, “Methods and compositions for the treatment of infection” (priority 2004, published 2005).

Where two headings read alike, the source gives them in different places.

As for `Cc1nnc(SCC2=C(C(=O)[O-])N3C(=O)[C@@H](NC(=O)Cn4cnnn4)[C@H]3SC2)s1.[Na+]` [Cephazoid, sodium Cephazoid], the results for the MIC in assay [1] and in assay [5] (Staphylococcus aureus MRSA BAA-42) were 0.03 µg/mL and 0.5 µg/mL, respectively. Further, the ED50 is >10 mg/kg in assay [2] (1st Time, mice, i.p. infection 8.0 × 10^6 cfu/ml, i.v. treatment after one hour); “(12.91) mg/kg” in [2] (2nd Time (value in parentheses), mice, i.p. infection 8.0 × 10^6 cfu/ml, i.v. treatment); 11.82 mg/kg in assay [3] (1st Time, mice, i.p. infection 1.7 × 10^5 cfu/ml, i.v. treatment after one hour); “(>10) mg/kg” in assay [3] (2nd Time (value in parentheses), mice, i.p. infection 1.7 × 10^5 cfu/ml, i.v. treatment); 9.04 mg/kg in [4] (1st Time, mice, i.p. infection 5.5 × 10^5 cfu/ml, i.v. treatment after one hour); “(8.78) mg/kg” in assay [4] (2nd Time (value in parentheses), mice, i.p. infection 5.5 × 10^5 cfu/ml, i.v. treatment). Further, the ED50 with Escherichia coli 02-1-65 [6] (setting [16]) is reported as >30.77 mg/kg; in the assay on Escherichia coli 02-1-65 [6] (setting [17]) it was “(>30.77) mg/kg”; in assay [7] (setting [16]), 29.03 mg/kg; in assay [7] (setting [17]), “(11.20) mg/kg”.
Consider `CC1(C)S[C@@H]2[C@H](NC(=O)[C@H](N)c3ccccc3)C(=O)N2[C@H]1C(=O)O` [Ampicillin, sodium ampicillin], for which the MIC was 8 µg/mL in assay [8]; < 0.015 µg/mL in assay [1] (ATCC29213, read-out: MIC); 0.25 µg/mL in assay [5] (Staphylococcus aureus); 0.25 to 16 µg/mL against Enterococcus (20); 0.015 to 0.25 µg/mL in [9] (read-out: MIC Scope); 0.015 to 0.25 µg/mL in [12]. For the same molecule, the MIC in assay [13] is 0.125 µg/mL; in the assay on Escherichia coli 02-1-65 [15], > 128 µg/mL. Also, the ED50 in assay [2] (Enterococcus faecalis, ATCC700802) was 3 mg/kg; in assay [2] (Enterococcus faecalis, ATCC700802, 1 h), 3.37 mg/kg; in [3] (Staphylococcus aureus, MRSA), > 20 mg/kg; in assay [3] (Staphylococcus aureus, MRSA, 1 h), 32.7 mg/kg; in assay [4] (Staphylococcus aureus), 23.4 mg/kg; in assay [4] (Staphylococcus aureus, 1 h), 25.2 mg/kg. Also, the ED50 with Escherichia coli 02-1-65 [6] (Escherichia coli, 02165, 2nd Time (value in parentheses), i.v. treatment, read-out: ED50) is > 30.8 mg/kg; in the assay on Escherichia coli 02-1-65 [6] (Escherichia coli, 02165, 1 h, 1st Time, i.v. treatment after one hour, read-out: ED50), > 30.8 mg/kg; in [7] (Staphylococcus aureus, ATCC29213, 2nd Time (value in parentheses), i.v. treatment, read-out: ED50), 12.3 mg/kg; in [7] (Staphylococcus aureus, ATCC29213, 1 h, 1st Time, i.v. treatment after one hour, read-out: ED50), 14.2 mg/kg. The MIC50 is 0.5 µg/mL with Enterococcus (20) (read-out: MIC50); > 128 µg/mL against Acenetobactor (20); 0.25 µg/mL in [9]; 16 µg/mL in assay [10] (Staphylococcus aureus, MRSA); 16 µg/mL in [11] (setting [18]); 0.03 µg/mL in [12] (read-out: MIC50). The MIC90 is 16 µg/mL in the assay on Enterococcus (20) (read-out: MIC90); > 128 µg/mL in the assay on Acenetobactor (20); 1 µg/mL in assay [9]; 32 µg/mL in assay [10] (Staphylococcus aureus, MRSA); 64 µg/mL in [11] (setting [18]); 0.25 µg/mL in assay [12] (read-out: MIC90). Besides, the “MIC Scope” value in assay [10] (80 MRSA clinical isolates) and in assay [11] (25 MRSE clinical isolates) was 0.06˜64 mg/l each time. Besides, in assay [14] (Ph-CA 5 μg/ml, Ph-SA 5 μg/ml, ampicillin 50 μg/ml, amphotericin B 200 ng/ml, fluconazole 3 μg/ml), the “effect on growth of Candida albicans” value was “no effect on the growth”.

B1: Rev. Ph-CA: Candida albicans alpha mating pheromone at N-terminus (S1) of colicin Ia (protein)
chain: GFRLTNFGYFEPGMSDPVARGITNPGAESLGYDSDGHEIMAVASPIYVASNPPRVASPVFHGTPPAWSSFGNKTIWGGNEWVASPDSPTRSDIEKRDKEITAYKNTLSAQQKENENKRTEAGKRLSAAIAAREKDENTLKTLRAGNADAADITRQEFRLLQAELREYGFRTEIAGYDALRLHTESRMLFADADSLRISPREARSLIEQAEKRQKDAQNADKKAADMLAEYERRKGILDTRLSELEKNGGAALAVLDAQQARLLGQQTRNDRAISEARNKLSSVTESLNTARNALTRAEQQLTQQKNTPDGKTIVSPEKFPGRSSTNHSIVVSGDPRFAGTIKITTSAVIDNRANLNYLLSHSGLDYKRNILNDRNPVVTEDVEGDKKIYNAEVALAEWDKLRQRLLDARNKITSAESAVASNSARNNLSARTNEQKHANDALNALLKEKENIRNQLSGINQKIAEEKRKQDELKATKDAINFTTEFLKSVSEKYGAKAEQLAREMAGQAKGKKIRNVEEALKTYEKYRADINKKINAKDRAAIAAALESVKLSDISSNLNRFSRGLGYAGKFTSLADWITEFGKAVARGTENWRPLFVKTETIIAGNAATALVALALVFSILTGSALGIIGYGLLMAVTGALIDESLVEKANKFWGI
modifications: Candida albicans alpha mating pheromone attached to colicin
For B1, the “inhibition effect as compared to PMC-CA” value in assay [14] (20 μg/ml) was “about 30%”. For the same molecule, the “antifungal effect against Candida albicans in vitro and in vivo” value in assay [14] (general statement) was “no effect”.

Broadly, the ED50 is the dose at which the effect has come halfway, by size or by number of responders. Usually MIC50 stands for the lowest concentration that inhibits either 50% of growth or 50% of the strains tested, depending on the study. Usually MIC90 stands for an inhibitory concentration at the 90% level, which refers to growth in some studies and to a panel of isolates in others.
